Assay results: the NIST ThermoML archive (doi:10.1021/je0496950)
Where “and” joins values, the source holds several entries; their conditions need not be identical. Equal entries are not always repeated. ± gives the expanded uncertainty stated by the source.

Legend:
[1] = 101 kPa, Liquid
[2] = mn = molality of the nth substance listed, in mol/kg; conditions: 101 kPa, Liquid; for speed of sound: Pulse-echo method

CC#N [acetonitrile]
[1]
Conditions | mass density
288.13 K | 787.307 ± 0.74 kg/m3 and 787.308 ± 0.74 kg/m3 and 787.312 ± 0.74 kg/m3
288.15 K | 787.308 ± 0.74 kg/m3
293.15 K | 781.933 ± 0.75 kg/m3 [middle of 4 runs]
298.15 K | 776.532 ± 0.76 kg/m3 [middle of 4 runs]
303.15 K | 771.106 ± 0.76 kg/m3 [middle of 4 runs]
308.15 K | 765.645 ± 0.77 kg/m3 and 765.664 ± 0.77 kg/m3 and 765.649 ± 0.77 kg/m3
313.15 K | 760.158 ± 0.78 kg/m3 [middle of 4 runs]
323.15 K | 749.07 ± 0.79 kg/m3 [middle of 4 runs]

[O-][Cl+3]([O-])([O-])[O-].[O-][Cl+3]([O-])([O-])[O-].[Zn+2] [zinc perchlorate] + CC#N
[2]
Conditions | mass density, 288.13 K [kg/m3] | mass density, 293.15 K [kg/m3] | mass density, 298.15 K [kg/m3] | mass density, 303.15 K [kg/m3] | mass density, 308.15 K [kg/m3] | mass density, 313.15 K [kg/m3] | mass density, 323.15 K [kg/m3] | speed of sound, 298.15 K [m/s]
m1 = 0.05169 | 797.728 ± 0.73 | 792.369 ± 0.73 | 786.992 ± 0.74 | 781.587 ± 0.75 | 776.154 ± 0.76 | 770.69 ± 0.76 | 759.656 ± 0.78 | 1280.2 ± 1.4
m1 = 0.09336 | 806.167 ± 0.72 | 800.821 ± 0.72 | 795.456 ± 0.73 | 790.063 ± 0.74 | 784.645 ± 0.74 | 779.192 ± 0.75 | 768.19 ± 0.77 | 1281.9 ± 1.4
m1 = 0.1233 | 812.307 ± 0.71 | 806.971 ± 0.72 | 801.611 ± 0.72 | 796.227 ± 0.73 | 790.815 ± 0.74 | 785.374 ± 0.74 | 774.39 ± 0.76 | 1283.1 ± 1.4
m1 = 0.1524 | 818.329 ± 0.7 | 812.997 ± 0.71 | 807.644 ± 0.72 | 802.268 ± 0.72 | 796.864 ± 0.73 | 791.433 ± 0.74 | 780.466 ± 0.75 | 1284.2 ± 1.4
m1 = 0.1817 | 824.45 ± 0.7 | 819.125 ± 0.7 | 813.78 ± 0.71 | 808.412 ± 0.72 | 803.019 ± 0.72 | 797.595 ± 0.73 | 786.657 ± 0.74 | 1285.4 ± 1.4
m1 = 0.2106 | 830.536 ± 0.69 | 825.218 ± 0.7 | 819.877 ± 0.7 | 814.514 ± 0.71 | 809.128 ± 0.72 | 803.712 ± 0.72 | 792.788 ± 0.74 | 1286.8 ± 1.4
m1 = 0.2379 | 836.415 ± 0.68 | 831.101 ± 0.69 | 825.768 ± 0.7 | 820.412 ± 0.7 | 815.033 ± 0.71 | 809.624 ± 0.72 | 798.715 ± 0.73 | 1287.9 ± 1.4
m1 = 0.2668 | 842.682 ± 0.68 | 837.373 ± 0.68 | 832.046 ± 0.69 | 826.696 ± 0.7 | 821.325 ± 0.7 | 815.925 ± 0.71 | 805.037 ± 0.72 | 1289 ± 1.4
m1 = 0.2944 | 848.641 ± 0.67 | 843.338 ± 0.68 | 838.017 ± 0.68 | 832.675 ± 0.69 | 827.308 ± 0.69 | 821.916 ± 0.7 | 811.045 ± 0.71 | 1290.3 ± 1.4
